Test: Human HepG2 cell viability assay in 384 well format
Assay type: toxicity, cell-based
Set-up: dose 125 nL, time 70.5 hour; concentration not given beside the values
Details: HepG2 cells, read-out: Inhibition

Structure (SMILES)	cytotoxicity at 70.5 h [%]
COc1cc(C)cc(C(C(=O)O)N(C)Cc2ccon2)c1OC (stereo unspecified)	-0.471
OC1(CN2CCCC2)CCCN(c2ncnc3[nH]cnc23)C1 (stereo unspecified)	-2.89
Cn1cc(C#N)cc1C(=O)N1CCC2(CCCN(CC3CCC3)C2=O)C1 (stereo unspecified)	-4.46
Cn1cccc1C(=O)N1CCCC(Cn2cc(CO)nn2)C1 (stereo unspecified)	-2.41
Cc1ncncc1C(=O)N1C[C@H]2CC[C@@H]1CN(C(=O)c1ccncc1)C2	-0.209
COCc1ncc(CN2CCC(Oc3ccccc3C)CC2)cn1	-16.4
COCC(=O)NCc1cc2n(n1)CCCN(Cc1ccccc1SC)C2	-6.55
OCC(O)CN1CCc2onc(-c3ccc(C(F)(F)F)cc3)c2C1 (stereo unspecified)	-8.17
Cc1nccc(-c2ccccc2)c1C(=O)N1CCC2(CC(=O)NC2=O)C1 (stereo unspecified)	-0.158
O=C(COc1cccc(Cl)c1)N1CCOCC(O)(CN2CCCC2)C1 (stereo unspecified)	-3.79
CCc1cc(CN(C)C(=O)c2nnc(CN(C)C)o2)on1	-4.97
CCC[C@H]1CN(CCS(C)(=O)=O)C[C@@H]1NC(=O)c1ccn(C)n1	-4.29
CCc1ccccc1OC1CN(C(=O)c2ccsc2)C1	-3.52
Cc1ncsc1CN1CCC2(CC1)CC(=O)N(Cc1ccc(Cl)cc1)C2	-3.74
Cc1nn(C)c2nc(N(Cc3ccncc3)CC3CCCO3)sc12 (stereo unspecified)	-5.1
Cc1nc[nH]c1-c1nccn1CCN(C)S(C)(=O)=O	3.1
O=C(CCc1cccs1)N1CCc2[nH]nc(COc3ccccc3)c2C1	2.22
CCCS(=O)(=O)N1CCCC(CCC(=O)N(C)CCc2ccccn2)C1 (stereo unspecified)	-0.331
Cc1cncc(C(=O)N2CCC3(CC2)C(=O)Nc2ccccc23)c1	-7.06
CN(C)S(=O)(=O)c1ccc(CNC(=O)c2cn3c(n2)CNCC3)cc1	14.9
Cn1c(CCC(=O)N2CCCC3(CC2)CNC(=O)O3)nc2cccnc21 (stereo unspecified)	44
CN(Cc1ccccc1)c1ncccc1CNC1CCC1	-2.38
COCCCN(Cc1cnc(-c2cccs2)nc1)C1CCN(C)CC1	-12

Structure (SMILES)	cytotoxicity at 70.5 h [%]
c1cncc(NCCNC2CCSCC2)c1	-2.74
CCN1C[C@@H](C(=O)O)[C@H](c2cccc(OC)c2)C1	5.16
COc1cccc(S(=O)(=O)N2CCN(C)[C@@H]3CS(=O)(=O)C[C@@H]32)c1	-4.74
O=c1cc(-c2ccncc2)nc(-c2ccc(CN3CC[C@H](O)C3)cc2)[nH]1	-6.15
Cc1cc(C(F)(F)F)nn1CCNC(=O)C(C)n1ccnc1C(C)C (stereo unspecified)	10.3
CCc1nc(N)nc(N2CCCC3(CCN(C)CC3)CC2)c1C	0.239
CCc1cnc(N)nc1N(C)CCc1cnn(C)c1	45.7
C=C(C)COc1ccccc1C(=O)NCCCc1nnn[nH]1	-13
C=C(C)COc1ccccc1NC(=O)N1CCOCC(CO)C1 (stereo unspecified)	23.5
CCc1ccc(C2CC(=O)Nc3cc(NS(C)(=O)=O)ccc32)o1 (stereo unspecified)	31.4
Cc1cc(C)n(CC2(CNC(=O)C(c3ccccc3C)N(C)C)CC2)n1 (stereo unspecified)	-10.8
CCc1nn(C)c(Cl)c1CN(CC)Cc1cnn(CC)c1	-6.7
CCc1nnc(CN(C)c2cc(C)nc3c(C)c(C)nn23)o1	-2.11
COc1ccc(N2CCN(C(=O)CCn3nnnc3C)CC2(C)C)cc1	14
CN(CCO)Cc1nnc(C2CCN(C(=O)C3CCOCC3)CC2)n1C	1.69
CN(Cc1ccncn1)C(=O)CCC(=O)NC1CCCC1	-9.64
COCC(C)Nc1ccc(-c2nc(Cc3ccc(F)cc3)no2)cn1 (stereo unspecified)	27.4
CSCCC1CC(=O)Nc2cc(O)c(C)cc21 (stereo unspecified)	25.3
CCNc1ncc(C(=O)NC2COC3(CCCC3)C2)cn1 (stereo unspecified)	-3.75
COc1ccc(Cn2cc(C(=O)N(C)Cc3cnccn3)nn2)cc1	-14.3
Cc1nc2ccc(C(=O)N3CCN(CCO)[C@@H]4CS(=O)(=O)C[C@@H]43)cc2o1	-5.42
CC(C)C(=O)NCC(=O)NCC1CCN(c2cnn(C)c(=O)c2)CC1	23.1
Cc1cc(C2CCC2)nc(N2CCC3(CCNC(=O)CC3)CC2)n1	-13

Structure (SMILES)	cytotoxicity at 70.5 h [%]
CCn1cc(C(=O)N2CCCC3(CCC(=O)N(CCC(C)C)C3)C2)cn1 (stereo unspecified)	-5.07
CCCc1nc(NCc2c(C)nn(CCC)c2C)c2cnn(C)c2n1	-9.62
CN(CCCc1nccn1C)c1nccc(N2CCC(O)C2)n1 (stereo unspecified)	7.29
CC[C@H](Nc1nc(C(C)C)nc2c1cnn2C)c1ccccc1	-8.04
CN(Cc1cc[nH]n1)C(=O)c1cn(Cc2c(F)cccc2F)nn1	-8.9
COc1ccc(OCc2cc(C(=O)N3C[C@@H](C)O[C@@H](C)C3)n[nH]2)c(Cl)c1	-8.42
CCn1ncnc1CN1CCC(CNC(=O)c2cccc(C)c2)C1 (stereo unspecified)	-15.4
Cc1cc(C)n(C2CCN(c3ncnc4c3CCNCC4)C2)n1 (stereo unspecified)	-9.03
COc1ccc(Cl)cc1-n1nc(C2CCCC2)nc1Cn1cnnn1	5.4
CC(C)C1CN(C(=O)c2cc(C3CC3)n[nH]2)CCC(=O)N1CC1CC1 (stereo unspecified)	-3.1
CSCc1noc(CNC(=O)C2CCN(C3CCCCC3)CC2)n1	-21.4
COc1cc(NCC(O)CN2CCCCCC2)ncn1 (stereo unspecified)	-7.58
Cc1nc(C(C)N2Cc3ncccc3C2=O)cs1 (stereo unspecified)	-12.4
CCNC(=O)[C@@H]1C[C@@H](NC(=O)c2cccn2C)CN1CCCSC	-6.56
CN1CCCCCC1C(=O)NCCCn1ncc2ccccc21 (stereo unspecified)	-11.3
Cc1cc2nc(C(C)C)cc(N(C)CC3CCCN(CCO)C3)n2n1 (stereo unspecified)	-2.47
CCn1cc(CN2CCC(CCC(=O)Nc3ccccc3Cl)CC2)cn1	12.4
CC1CCN(S(=O)(=O)N2CCCC(c3cccc(C(=O)O)c3)C2)CC1 (stereo unspecified)	-12.1
Cc1cc(C(=O)N2CCCC(C(=O)c3nccn3C)C2)c(=O)[nH]c1C (stereo unspecified)	7.95
CN(C)C(C(=O)NCc1cc(C(C)(C)C)n[nH]1)c1ccc(F)cc1 (stereo unspecified)	-4.44
Cc1cc(C2CCCCN2C(=O)CN2CC3(CCNCC3)OC2=O)no1 (stereo unspecified)	-6.52
COCCCN1CC2(CCCN(c3ncc4nc[nH]c4n3)C2)CCC1=O (stereo unspecified)	-11.3
CCOCC1CCN(C(=O)C(c2ccccc2F)N(C)C)CC1 (stereo unspecified)	-8.49

Structure (SMILES)	cytotoxicity at 70.5 h [%]
CCc1nc(N)nc(N2CCCC3(CCOCC3)C2)c1C	-7.63
C1CCC(c2nnc3sc(C4CCCO4)nn23)C1 (stereo unspecified)	10.1
CC(C)N1CC(c2ncc(-c3ccc4c(c3)OCCO4)[nH]2)CC1=O (stereo unspecified)	-5.64
Cc1c(CNC(=O)C2CCCCCN2C)oc2ccccc12 (stereo unspecified)	-0.804
O=C(O)c1cc(-c2ccc3c(c2)OCO3)cc(S(=O)(=O)NC2CC2)c1	-11.6
Cc1cnc(NCC(C)(C)N2CCCCC2)nc1	-5.95
Cc1nn(CCO)cc1CN1CCCN(C2CCCC2)CC1	12.8
CC(=O)N1CCc2nc(N(C)C)nc(NCCc3ccccc3)c2CC1	-9.06
CCCC1C=CCN1C(=O)c1cc(COc2ccc3c(c2)OCO3)[nH]n1 (stereo unspecified)	-11
CCCN1CC2(CCN(C)CC2)CC1C(=O)NCCn1nc(C)nc1C (stereo unspecified)	6.07
CC(Nc1nc(-c2ccccc2)nc2c1CCNCC2)c1nccs1 (stereo unspecified)	2.31
CC(c1cccc(-c2nccn2CCc2cn[nH]c2)c1)N(C)C (stereo unspecified)	4.99
CC(C)[C@H]1CN(C2Cc3ccccc3C2)C[C@@H]1NS(C)(=O)=O	7.83
COc1cc(N(C)CCCn2nc(C)cc2C)ncn1	-10.8
CC(C)CC(O)C1CCN(Cc2cnc(-c3cccs3)nc2)CC1 (stereo unspecified)	37.1
O=C(c1csnn1)N1CCc2[nH]nc(COc3cccc(Cl)c3)c2C1	-2.42
Cc1nnsc1CNC(=O)Nc1cccc(N2CCN(C)C2=O)c1	5.12
Cc1ncc(C(=O)N2CCCC(C(=O)c3nccn3C)C2)c(O)n1 (stereo unspecified)	9.55
Cc1nc(C)c(CC(=O)N2C[C@@H](C(=O)O)[C@H](c3ccncc3)C2)s1	-0.442
c1cc2c(cc1-n1nc(C3CC3)nc1-c1csnn1)OCCO2	2.73
CN1CC2(CCN(Cc3cccc(C#N)c3)CC2)CC1=O	20.6
CCCn1cnnc1CN(C)C(=O)C1CCCN(C2CCN(C)CC2)C1 (stereo unspecified)	-9.33
COCC[C@]1(O)CCN(C2CCN(C(=O)C3CCC3)CC2)C[C@H]1C	-9.1

Structure (SMILES)	cytotoxicity at 70.5 h [%]
CN(Cc1cccc2ncccc12)C(=O)CCC(F)(F)F	27.3
CC(C)N1CC2(CCCN(c3ccccn3)C2)CCC1=O (stereo unspecified)	-6.62
CCCc1nnc(N2CCC3(CC2)CN(C)C(=O)O3)o1	2.82
COc1cccc(OCC2CCCN(Cc3ccncc3)C2)c1 (stereo unspecified)	-10.6
CCN1CCC(CC(=O)N[C@H](C(=O)O)c2cccc(F)c2F)CC1	-2.11
Cn1ccnc1C1CCCN(C(=O)c2cc(F)cc(F)c2)C1 (stereo unspecified)	-6.29
CC(C)=CCN1C(=O)[C@H]2CC[C@@H]1CN(C(=O)CCc1n[nH]c(C)c1C)C2	11.2
CC(c1cccc(-c2cn(Cc3ccoc3)nn2)c1)N(C)C (stereo unspecified)	-2.66
Cc1ccc(O)c(CN(Cc2ccccc2)Cc2nccs2)n1	-4.83
Cc1ccc(C(=O)N(C)CCCc2cnn(C)c2)cc1N1CCNC1=O	46.5
CCOCCn1nc(C)cc1C(=O)N1CC[C@](C)(O)C(C)(C)C1	2.52
Cc1n[nH]c(C)c1CCN(C)C(=O)C(c1cccnc1)N1CCOCC1 (stereo unspecified)	-4.73
COc1cccc2c1OCC(C(=O)N1CCN(S(=O)(=O)N(C)C)CC1)C2 (stereo unspecified)	-2.76
CSCCCNC(=O)c1coc(Cn2cnc3ccccc32)n1	-6.75
CN(Cc1cc[nH]n1)C(=O)c1ccc2c(c1)nc(N1CC[C@H](O)C1)n2C	-1.12
CSc1nccc(-c2cccc(-c3ccn(CC4COCCO4)n3)c2)n1 (stereo unspecified)	-13.8
Cc1ccc(Oc2ncccc2CNC2Cc3ccccc3C2)cn1	-8.21
CCC[C@@H]1CN(C(=O)c2cc3ccccc3cc2O)C[C@H]1N(C)C	28.4
Cc1cc(NC(C)Cn2cccn2)n2nccc2n1 (stereo unspecified)	-12.5

— ChEMBL document CHEMBL3507680, “University of Dundee, Gates Library screen for HepG2 cell viability”
